Data set [1] addresses T1, NQO1 (Homo sapiens, UniProt P15559). The data set is described as follows: Spectroscopic response of NQ-DCP to hNQO1. In kind it is biochemical. As for the experimental part: Spectroscopic Response of NQ-DCP to hNQO1. The spectroscopic response of the NQ-DCP probe to an hNQO1 enzyme in the presence of NADH was evaluated in a physiologically relevant buffer (0.1% BSA and 100 μM NADH containing PBS) to determine its ability to detect hNQO1. The absorption and fluorescence spectra of NQ-DCP in the absence and presence of hNQO1 are shown in FIGS. 2A and B. In the presence of hNQO1, although there was a distinct color change from yellow to red there was no difference found in the absorption maximum (425 nm) of NQ-DCP ([…]). Further, the reaction of NQ-DCP probe with hNQO1 produced a huge fluorescence enhancement at 565 nm with a large Stokes shift (140 nm) (FIG. 2B), which is favorable for sensitive detection and bioimaging analysis, because of a non-overlapping fluorescence emission. […] The inventors measured the fluorescence spectra of NQ-DCP (10 μm) following incubation with different concentrations of hNQO1 (0.12, 0.25, 0.5, 1.0, 1.5, 2.0, and 2.5 μg/mL (0.0038, 0.008, 0.016, 0.032, 0.048, 0.064, 0.08 μmol)) along with 100 μM NADH at pH 7.4 for 30 min. […] On incubation with hNQO1, the fluorescence intensity at 565 nm increased progressively with the NQO1 concentration and reached a maximum when the hNQO1 concentration was 2.5 μg/mL. The fluorescence intensity at 565 nm was linear with hNQO1 concentration, 0.25-2.0 μg/mL (FIG. 2D). The hNQO1 detection limit (LOD) of NQ-DCP was calculated to be as low as 0.095 μg/mL, based on the standard deviation of the response (Sy) and the slope of the calibration curve (S) according to the formula: LOD=3.3(Sy/S).
Spectroscopic Methods. For absorption and fluorescence measurements, all samples were first dissolved in 100% DMSO to obtain 10 mM stock solutions and then diluted to desired concentrations in PBS buffer containing 0.1% BSA for measurement. All spectroscopic measurements were performed under physiological conditions (pH 7.4 at room temperature. hNQO1 specific NQ-DCP activation was performed under philological conditions (PBS with 0.1% of BSA at 37° C.) in the presence of 100 μM NADH for 30 min. Time-dependent fluorescent intensity changes for different concentrations of […] in the presence of NQO1 (2.0 μg/mL) and 100 μM NADH were measured using Hitachi F-2500 Fluorescence spectrophotometer (λex=420 nm and λem=565 nm).

The target of data set [2] is T1, NQO1. The data set is described as follows: Selectivity of NIR-ASM for NQO1 over other enzymes/substrates. In kind it is biochemical. On the set-up: purchased Sigma-Aldrich D1515. Conditions: 30 min; GSH, ALDH1A1, GGT, GPx, APE1, CBS, CTSL, GST-pi, NADH, NTR. The text has this:
Selectivity of NIR-ASM. The selectivity of NIR-ASM probe was studied by examining its reactivity towards various biomolecules and antioxidant enzymes such as the glutathione, aldehyde dehydrogenase 1, gamma-glutamyl transferase, glutathione peroxidase, apurinic/apyrimidinic endonuclease, cystathionine-β-synthase, cathepsin L, glutathione S-transferase, NADH alone and the combination of nitroreductase and NQO1.
Determination of NIR-ASM specificity towards NQO1. The specificity towards NQO1 was investigated by incubating NIR-ASM (10 μm) with various biologically relevant analytes such as glutathione (GSH, 1 mM), aldehyde dehydrogenase 1 (ALDH1A1, 2.5 μg/mL), gamma-glutamyl transferase (GGT, 10 U), glutathione peroxidase (GPx, 10 U), apurinic/apyrimidinic endonuclease (APE1, 10 U), cystathionine-β-synthase (CBS, 2 μg/mL), cathepsin L (CTSL, 2 μg/mL), glutathione S-transferase (GST-pi, 2 μg/mL), NADH (100 μM) alone and the combination of nitroreductase (NTR, 2 μg/mL) and NQO1 (2 μg/mL) for 30 min. Fluorescence spectra were analyzed to determine NIR-ASM specificity against NQO1.

Another data set deals with A549 tumor. The data set is described as follows: In vivo real-time imaging of NQO1 in A549 xenografts with NIR-ASM. Further details: species or system nude mice. How it is done: In vivo real-time imaging of NQO1 in xenografts using NIR-ASM. In vivo real-time imaging offers a powerful tool for accurately diagnosing disease and suspicious lesions with valuable spatiotemporal precision. […] Tumor xenografts were established by implanting exponentially growing lung cancer cells (A549) subcutaneously into nude mice. When tumor growth reached the log phase, NIR-ASM (5 mg/kg in PEG:H2O:EtOH (6:3:1)) was given intravenously and subjected to whole-body fluorescence imaging using an In Vivo Imager (IVIS). […] No signal was apparent in other organs of the animal. To confirm the tumor-selective targeting ability of NIR-ASM, the host organs and tumor from the mice administered with NIR-ASM were harvested and their fluorescence was analyzed ex vivo using the same IVIS. […] Furthermore, the lysates from the tumor and various organs were electrophoresed and western blotted using the NQO1 antibody. NQO1 protein at detectable levels was seen only in the tumor lysate and not in other tissues, thus, reinforcing the specificity of in-vivo imaging (FIG. 14C).
In vivo bioimaging. […] All animals were monitored for activity, physical condition, body weight, and tumor growth. […] Fluorescence represented in log values of radiance is photons per second per square centimeter per steradian.

Two molecules from US11957766B2, “HNQO1-activatable fluorescent probe for imaging cancer cells in-vitro and in-vivo” (Texas Tech University System, priority 2019, dated 2024) can be followed below.

The structures appear in SMILES notation. Several values for one entry are separate records, joined by “and”; a condition that tells them apart may be missing. Identical values can stand only once.

T1 sequence (P15559 whole entry): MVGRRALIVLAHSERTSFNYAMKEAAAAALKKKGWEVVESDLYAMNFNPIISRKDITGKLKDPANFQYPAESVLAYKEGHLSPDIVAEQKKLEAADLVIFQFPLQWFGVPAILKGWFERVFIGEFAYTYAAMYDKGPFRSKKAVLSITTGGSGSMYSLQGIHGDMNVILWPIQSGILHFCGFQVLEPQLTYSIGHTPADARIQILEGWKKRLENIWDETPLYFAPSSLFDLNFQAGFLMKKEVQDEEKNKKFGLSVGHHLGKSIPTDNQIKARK

With `CC1=C(C)C(=O)C(C(C)(C)CC(=O)Oc2ccc(/C=C/C3=CC(=C(C#N)C#N)CC(C)(C)C3)cc2)=C(C)C1=O` [NQ-DCP], at NQO1 [1], the Stokes-Shift stood at 145 and the λabs/em is given as 420/465. Further, the “hNQO1 concentration range in which fluorescence intensity at 565 nm was linear” value at NQO1 [1] (10 μM probe, 100 μM NADH, 30 min) lay within 0.25 to 2.0 µg/mL. Also, the “hNQO1 detection limit (LOD)” value at NQO1 [1] (10 μM probe, 100 μM NADH, pH 7.4, 30 min, LOD=3.3(Sy/S)) amounted to 0.095 µg/mL. Also, the “stability in the absence of hNQO1” value at NQO1 [1] (PBS with 0.1% BSA, 100 μM NADH, pH 7.4, 30 min, no hNQO1) was “highly stable”. For the same molecule, at NQO1 [1] (after reaction with hNQO1), the Stokes shift was 145 nm and 140 nm; the “fluorescence enhancement (emission wavelength)” value is 565 nm. Besides, the absorption maximum on NQO1 [1] (no difference in the presence of hNQO1) was found to be 425 nm.
In the case of `CC1=C(C)C(=O)C(C(C)(C)CC(=O)Nc2ccc(/C=C/C3=CC(=C(C#N)C#N)CC(C)(C)C3)cc2)=C(C)C1=O` [NIR-ASM, (E)-N-(4-(2-(3-(dicyanomethylene)-5,5-dimethylcyclohex-1-en-1-yl)vinyl)phenyl)-3-methyl-3-(2,4,5-trimethyl-3,6-dioxocyclohexa-1,4-dien-1-yl)butanamide], on NQO1 [2], the “selectivity for NQO1 over the other enzymes/substrates tested” value is “high selectivity”. Moreover, the “time at which tumor fluorescence signal reached the plateau” value in the data set with A549 tumor (5 mg/kg intravenously) came out at 30 min. Also, the “ex vivo fluorescence in tumor and organs” value with A549 tumor (organs harvested after NIR-ASM) was “observed only in the tumor and not in any other major organs”.
